Values joined by “and” are separate entries in the source; they are usually repeats but may differ in a detail not shown here. Equal values may be shown once. Inconclusive results and toxic doses are left out. How the source made its calls: active means survival T/C of 150% or more; inactive means T/C below 125% in these data.
Tested on: BDF1 mice, B16 melanoma ip, median survival T/C
Experiment: NCI In Vivo Anticancer Drug Screen. Data for tumor model B16 Melanoma (intraperitoneal) in B6D2F1 (BDF1) mice
Conditions: endpoint: median survival time, higher = longer survival
Method in brief: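 The ratio T/C compares compound-treated mice with vehicle-treated controls, using survival or tumor size as the endpoint in a transplantable tumor model.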

[1] = dose: 6.25 mg/kg/injection, schedule: Q01DX009 (ip), vehicle: Klucel (hydroxypropylcellulose) (HPC)
[2] = dose: 12.5 mg/kg/injection, schedule: Q01DX009 (ip), vehicle: Klucel (hydroxypropylcellulose) (HPC)
[3] = dose: 25.0 mg/kg/injection, schedule: Q01DX009 (ip), vehicle: Klucel (hydroxypropylcellulose) (HPC)
[4] = dose: 50.0 mg/kg/injection, schedule: Q01DX009 (ip), vehicle: Klucel (hydroxypropylcellulose) (HPC)
[5] = dose: 100.0 mg/kg/injection, schedule: Q01DX009 (ip), vehicle: Klucel (hydroxypropylcellulose) (HPC)
[6] = dose: 200.0 mg/kg/injection, schedule: Q01DX009 (ip), vehicle: Klucel (hydroxypropylcellulose) (HPC)
[7] = dose: 400.0 mg/kg/injection, schedule: Q01DX009 (ip), vehicle: Klucel (hydroxypropylcellulose) (HPC)
[8] = dose: 100.0 mg/kg/injection, schedule: Q01DX009 (ip), vehicle: saline
[9] = dose: 200.0 mg/kg/injection, schedule: Q01DX009 (ip), vehicle: saline
[10] = dose: 400.0 mg/kg/injection, schedule: Q01DX009 (ip), vehicle: saline
[11] = dose: 12.5 mg/kg/injection, schedule: Q01DX009 (ip), vehicle: saline with Tween-80
[12] = dose: 25.0 mg/kg/injection, schedule: Q01DX009 (ip), vehicle: saline with Tween-80
[13] = dose: 100.0 mg/kg/injection, schedule: Q01DX009 (ip), vehicle: saline with Tween-80
[14] = dose: 200.0 mg/kg/injection, schedule: Q01DX009 (ip), vehicle: saline with Tween-80
[15] = dose: 50.0 mg/kg/injection, schedule: Q01DX009 (ip), vehicle: saline
[16] = dose: 50.0 mg/kg/injection, schedule: Q01DX009 (ip), vehicle: saline with Tween-80

Measured: T/C

O=C1C(Cl)=C(c2ccccc2)C(=O)C(Cl)=C1c1ccccc1
inactive: [1] 114 % of control | [2] 106 % of control | [3] 87 % of control | [4] 94 % of control

O=C(CCCl)NC(Cc1ccccc1)c1ccccc1 (stereo not given)
inactive: [5] 110 % of control | [6] 96 % of control | [7] 96 % of control

CC(C)/C=C(\C#N)C(=O)O
inactive: [2] 100 % of control | [3] 100 % of control | [4] 100 % of control

CC(=O)Oc1ccccc1O
inactive: dose: 25.0 mg/kg/injection, schedule: Q01DX009 (ip), vehicle: saline + Tween-80 + alcohol 100 % of control | dose: 50.0 mg/kg/injection, schedule: Q01DX009 (ip), vehicle: saline + Tween-80 + alcohol 109 % of control | dose: 100.0 mg/kg/injection, schedule: Q01DX009 (ip), vehicle: saline + Tween-80 + alcohol 104 % of control

O=c1[nH]c(Cl)ncc1F
inactive: dose: 37.5 mg/kg/injection, schedule: Q01DX009 (ip), vehicle: Klucel (hydroxypropylcellulose) (HPC) 87 % of control

CCCCCCCCCCCCCCCCCCN(C)C
inactive: [1] 104 % of control | [2] 107 % of control | [3] 89 % of control and 101 % of control

[Cu+2].[NH-]CC(=O)O.[NH-]CC(=O)O
inactive: dose: 2.5 mg/kg/injection, schedule: Q01DX009 (ip), vehicle: saline 97 % of control | dose: 2.5 mg/kg/injection, schedule: Q04DX003 (ip), vehicle: saline with Tween-80 121 % of control | dose: 5.0 mg/kg/injection, schedule: Q01DX009 (ip), vehicle: saline 95 % of control and 102 % of control | dose: 5.0 mg/kg/injection, schedule: Q04DX003 (ip), vehicle: saline with Tween-80 115 % of control | dose: 10.0 mg/kg/injection, schedule: Q01DX009 (ip), vehicle: saline 95 % of control and 100 % of control | dose: 10.0 mg/kg/injection, schedule: Q04DX003 (ip), vehicle: saline with Tween-80 100 % of control

COC(=O)C(CCl)NC(C)=O (stereo not given)
inactive: [8] 102 % of control | [9] 102 % of control | [10] 117 % of control

CC1=C/C(=N\NS(=O)(=O)c2ccc([N+](=O)[O-])cc2)CC(C)(C)C1
inactive: [4] 94 % of control | [5] 93 % of control | [6] 96 % of control | [7] 88 % of control

N=C(N)c1ccc(/C=C/c2ccc(C(=N)N)cc2O)cc1
inactive: dose: 3.12 mg/kg/injection, schedule: Q01DX009 (ip), vehicle: water 105 % of control and 107 % of control | dose: 6.25 mg/kg/injection, schedule: Q01DX009 (ip), vehicle: water 88 % of control and 101 % of control | dose: 12.5 mg/kg/injection, schedule: Q01DX009 (ip), vehicle: water 101 % of control and 107 % of control | dose: 25.0 mg/kg/injection, schedule: Q01DX009 (ip), vehicle: water 97 % of control and 114 % of control | dose: 50.0 mg/kg/injection, schedule: Q01DX009 (ip), vehicle: water 93 % of control and 104 % of control

CCCCCCCCSCCO
inactive: [11] 102 % of control | [12] 97 % of control

COc1ccc2c(oc(=O)c3c(Cl)nc(C)c(C)c32)c1OC
inactive: [3] 105 % of control | [4] 98 % of control | [5] 97 % of control | [6] 94 % of control

CS(=O)(=O)OCCCOS(C)(=O)=O
inactive: [2] 91 % of control

CC(C)[NH-].CC(C)[NH-].O.O.[Cl][Pt+2][Cl]
active: dose: 12.5 mg/kg/injection, schedule: Q01DX009 (ip), vehicle: dextrose 164 % of control and 168 % of control
inactive: dose: 3.12 mg/kg/injection, schedule: Q01DX009 (ip), vehicle: dextrose 118 % of control | dose: 3.13 mg/kg/injection, schedule: Q01DX009 (ip), vehicle: dextrose 122 % of control

O=C(Nc1cccc([N+](=O)[O-])c1)c1cc2ccccc2cc1O
inactive: [13] 110 % of control | [14] 107 % of control | dose: 400.0 mg/kg/injection, schedule: Q01DX009 (ip), vehicle: saline with Tween-80 105 % of control

CCCCCCCCCCCCCCCCN(C)S(=O)(=O)c1ccc2sc(SC)[n+](C)c2c1 (tested in a mixture with another compound)
inactive: dose: 12.5 mg/kg/injection, schedule: Q04DX003 (ip), vehicle: saline with Tween-80 100 % of control | dose: 25.0 mg/kg/injection, schedule: Q04DX003 (ip), vehicle: saline with Tween-80 100 % of control

COC(=O)C1(C(=O)OC)C=CCCC1=O
inactive: [5] 99 % of control | [6] 97 % of control

C#CC[N+]12CN3CN(CN(C3)C1)C2
inactive: [15] 104 % of control | [8] 100 % of control | [9] 107 % of control

NCCc1ccc(S(=O)(=O)O)cc1[N+](=O)[O-]
inactive: dose: 50.0 mg/kg/injection, schedule: Q01DX009 (ip), vehicle: carboxymethylcellulose (CMC) 96 % of control | dose: 100.0 mg/kg/injection, schedule: Q01DX009 (ip), vehicle: carboxymethylcellulose (CMC) 86 % of control | dose: 200.0 mg/kg/injection, schedule: Q01DX009 (ip), vehicle: carboxymethylcellulose (CMC) 89 % of control

CN(C)CC(Cl)CCl (stereo not given)
inactive: [15] 98 % of control | [8] 102 % of control | [9] 105 % of control | [10] 108 % of control

CCCN(/C=C/C=C/C=[N+](CCC)CCC)CCC
inactive: dose: 0.03 mg/kg/injection, schedule: Q01DX009 (ip), vehicle: saline 107 % of control | dose: 0.05 mg/kg/injection, schedule: Q01DX009 (ip), vehicle: saline 109 % of control | dose: 0.1 mg/kg/injection, schedule: Q01DX009 (ip), vehicle: saline 103 % of control | dose: 0.2 mg/kg/injection, schedule: Q01DX009 (ip), vehicle: saline 96 % of control

CCOc1c(Br)cc(Br)cc1/C=N/NS(=O)(=O)c1ccc(C)cc1
inactive: dose: 12.5 mg/kg/injection, schedule: Q04DX003 (ip), vehicle: Klucel (hydroxypropylcellulose) (HPC) 102 % of control | [3] 91 % of control | dose: 25.0 mg/kg/injection, schedule: Q04DX003 (ip), vehicle: Klucel (hydroxypropylcellulose) (HPC) 107 % of control | [4] 97 % of control | dose: 50.0 mg/kg/injection, schedule: Q04DX003 (ip), vehicle: Klucel (hydroxypropylcellulose) (HPC) 104 % of control | dose: 170.0 mg/kg/injection, schedule: Q04DX003 (ip), vehicle: Klucel (hydroxypropylcellulose) (HPC) 97 % of control

Cc1cc2nc(Cc3ccccc3)[nH]c2cc1C
inactive: [11] 102 % of control | [12] 105 % of control | [16] 94 % of control

OC1CCCC2CCCNC12 (stereo not given)
inactive: dose: 3.12 mg/kg/injection, schedule: Q01DX009 (ip), vehicle: saline with Tween-80 100 % of control | dose: 6.25 mg/kg/injection, schedule: Q01DX009 (ip), vehicle: saline with Tween-80 108 % of control | [11] 99 % of control | [12] 96 % of control | [16] 96 % of control

CCCCNC(C)[C@]1(O)Cc2c(O)c3c(c(O)c2[C@@H](OC2CC(N)C(O)C(C)O2)C1)C(=O)c1c(OC)cccc1C3=O (stereo not given in full)
inactive: dose: 37.5 mg/kg/injection, schedule: Q01DX001 (ip), vehicle: water 106 % of control
active: dose: 4.7 mg/kg/injection, schedule: Q01DX001 (ip), vehicle: water 185 % of control and 198 % of control | dose: 9.4 mg/kg/injection, schedule: Q01DX001 (ip), vehicle: water 185 % of control and 215 % of control and 270 % of control | dose: 18.8 mg/kg/injection, schedule: Q01DX001 (ip), vehicle: water 197 % of control and 222 % of control and 263 % of control

CCC(=O)Nc1cc(C(F)(F)F)ccc1Cl
inactive: [12] 100 % of control | [16] 101 % of control and 119 % of control | [13] 96 % of control and 105 % of control | [14] 105 % of control

CC(N)Cc1cn(C)c2ccccc12 (stereo not given)
inactive: dose: 6.25 mg/kg/injection, schedule: Q01DX009 (ip), vehicle: saline 122 % of control | dose: 12.5 mg/kg/injection, schedule: Q01DX009 (ip), vehicle: saline 105 % of control | dose: 25.0 mg/kg/injection, schedule: Q01DX009 (ip), vehicle: saline 102 % of control | [15] 105 % of control | [8] 88 % of control

C=C1C(=O)OC2C3OC(C)(CCC(O)C3COC(C)=O)CC(OC(=O)/C(=C/C)COC(C)=O)C12 (stereo not given)
inactive: dose: 0.04 mg/kg/injection, schedule: Q01DX009 (ip), vehicle: suspension in saline 111 % of control | dose: 0.09 mg/kg/injection, schedule: Q01DX009 (ip), vehicle: suspension in saline 109 % of control | dose: 0.18 mg/kg/injection, schedule: Q01DX009 (ip), vehicle: suspension in saline 107 % of control | dose: 0.37 mg/kg/injection, schedule: Q01DX009 (ip), vehicle: suspension in saline 91 % of control | [1] 91 % of control | [2] 98 % of control | [3] 105 % of control
